The text below walks through data of ChEMBL document CHEMBL3044676, “Effect of Antibiotics on Formation of Aerial Mycelium and Production of Phytotoxins in Streptomyces spp” (2003).

Activity calls are given as the source filed them. The calls are words filed in the database; no cut-off is given here.

Test [1] deals with Streptomyces scabiei. As to the kind of experiment: Antimicrobial activity against Streptomyces scabiei ATCC 4917314 assessed as inhibition of aerial mycelial growth at 0.40 ug/disk after 5 days by paper disk method. Format: functional. The note with it: for zone of inhibition at 0.4 µg/disc: ATCC 4917314, 120 h, read-out: DIZ.
The subject of test [2] is Streptomyces scabiei. The test is described as follows: Antimicrobial activity against Streptomyces scabiei ATCC 4917314 assessed as inhibition of growth at 4 ug/disk after 5 days by paper disk method. It counts as functional. The note with it: ATCC 4917314, 120 h, read-out: DIZ.
Test [3] concerns Streptomyces alboniger. As to the kind of experiment: Antimicrobial activity against Streptomyces alboniger IFO 12738 assessed as inhibition of aerial mycelial growth at 0.04 ug/disk after 5 days by paper disk method. It counts as functional, organism-based.
Test [4] has as its system Streptomyces acidiscabies. As to the kind of experiment: Antimicrobial activity against Streptomyces acidiscabies ATCC 4900315 assessed as inhibition of aerial mycelial growth at 0.04 ug/disk after 5 days by paper disk method. It counts as functional.
The subject of test [5] is Streptomyces scabiei. As to the kind of experiment: Antimicrobial activity against Streptomyces scabiei ATCC 4917314 assessed as inhibition of aerial mycelial growth at 4 ug/disk after 5 days by paper disk method. It counts as functional. The conditions noted are these: for zone of inhibition at 4 µg/disc: ATCC 4917314, 120 h, read-out: DIZ.
Test [6] deals with Streptomyces acidiscabies. The test is described as follows: Antimicrobial activity against Streptomyces acidiscabies ATCC 4900315 assessed as inhibition of growth at 4 ug/disk after 5 days by paper disk method. Format: functional. The note with it: for zone of inhibition at 4 µg/disc: ATCC 4900315, 120 h, read-out: DIZ.
Test [7] concerns Streptomyces alboniger. The test is described as follows: Antimicrobial activity against Streptomyces alboniger IFO 12738 assessed as inhibition of aerial mycelial growth at 0.4 ug/disk after 5 days by paper disk method. It counts as functional. The note with it: for zone of inhibition at 0.4 µg/disc: IFO 12738, 120 h, read-out: DIZ.
The test system of test [8] is Streptomyces acidiscabies. The test is described as follows: Antimicrobial activity against Streptomyces acidiscabies ATCC 4900315 assessed as inhibition of aerial mycelial growth at 4 ug/disk after 5 days by paper disk method. It counts as functional. The note with it: for zone of inhibition at 4 µg/disc: ATCC 4900315, 120 h, read-out: DIZ.
The subject of test [9] is Streptomyces scabiei. As to the kind of experiment: Antimicrobial activity against Streptomyces scabiei ATCC 4917314 assessed as inhibition of aerial mycelial growth at 0.04 ug/disk after 5 days by paper disk method. The note with it: for zone of inhibition at 0.04 µg/disc: ATCC 4917314, 120 h, read-out: DIZ. It counts as functional.
The subject of test [10] is Streptomyces acidiscabies. As to the kind of experiment: Antimicrobial activity against Streptomyces acidiscabies ATCC 4900315 assessed as inhibition of aerial mycelial growth at 0.4 ug/disk after 5 days by paper disk method. Format: functional. The conditions noted are these: for zone of inhibition at 0.4 µg/disc: ATCC 4900315, 120 h, read-out: DIZ.
The test system of test [11] is Streptomyces alboniger. As to the kind of experiment: Antimicrobial activity against Streptomyces alboniger IFO 12738 assessed as inhibition of growth at 4 ug/disk after 5 days by paper disk method. The note with it: IFO 12738, 120 h, read-out: DIZ. Format: functional.
In test [12] the test system is Streptomyces scabiei. As to the kind of experiment: Antimicrobial activity against Streptomyces scabiei ATCC 4917314 assessed as inhibition of growth at 0.4 ug/disk after 5 days by paper disk method. It counts as functional. The conditions noted are these: ATCC 4917314, 120 h, read-out: DIZ.
The test system of test [13] is Streptomyces alboniger. As to the kind of experiment: Antimicrobial activity against Streptomyces alboniger IFO 12738 assessed as inhibition of aerial mycelial growth at 4 ug/disk after 5 days by paper disk method. Format: functional. The note with it: for zone of inhibition at 4 µg/disc: IFO 12738, 120 h, read-out: DIZ.

For the molecule `CO[C@@H]1[C@@H](OC(N)=O)[C@@H](O)[C@H](Oc2ccc3c(O)c(NC(=O)c4ccc(O)c(CC=C(C)C)c4)c(=O)oc3c2C)OC1(C)C` [NOVOBIOCIN], the zone of inhibition at 0.4 µg/disc in [1] stood at 28 mm; in test [7], 11 mm; in test [10], 14 mm; in test [12] it was 17 mm. The zone of inhibition at 4 µg/disc in [2] was found to be 26 mm; in test [5] it was 44 mm; in test [6], 18 mm; in [8], 39 mm; in test [11] it was 21 mm. In addition, the “diameter of the inhibition zone (DIZ)” value in [3], in [4] and in [9] was “inactive” in each case.

`CN(C)[C@@H]1C(O)=C(C(N)=O)C(=O)[C@@]2(O)C(O)=C3C(=O)c4c(O)cccc4[C@@](C)(O)[C@H]3[C@H](O)[C@@H]12` [OXYTETRACYCLINE]: the results for the zone of inhibition at 0.4 µg/disc in test [1] and in [10] were 13 mm and 16 mm, respectively. For the same molecule, the results for the zone of inhibition at 4 µg/disc in [2], in [5] and in test [6] were 13 mm, 37 mm and 34 mm, respectively. Moreover, the “diameter of the inhibition zone (DIZ)” value in [3], in test [13], in [4], in test [7] and in test [8] was “inactive” in each case. In addition, the zone of inhibition at 0.04 µg/disc in test [9] worked out at 10 mm.

For the molecule `CN(CC[C@H](N)CC(=O)N[C@H]1CC[C@H](n2ccc(N)nc2=O)O[C@@H]1C(=O)O)C(=N)N` [BLASTADIN S], in test [1], the zone of inhibition at 0.4 µg/disc was 10 mm. In addition, the “diameter of the inhibition zone (DIZ)” value in test [3], in [13], in test [4], in test [7], in test [9] and in [10] was “inactive” each time. Moreover, the zone of inhibition at 4 µg/disc in [5] came to 23 mm; in [8], 9 mm.

Turning to `CO[C@@H]1[C@H](O)C[C@@H](O[C@@H]2C[C@H](Oc3cc4cc5c(c(O)c4c(O)c3C)C(=O)[C@@H](O[C@H]3C[C@@H](O[C@H]4C[C@@H](O[C@H]6C[C@](C)(O)[C@@H](OC(C)=O)[C@H](C)O6)[C@H](O)[C@@H](C)O4)[C@H](O)[C@@H](C)O3)[C@H]([C@H](OC)C(=O)[C@@H](O)[C@@H](C)O)C5)O[C@H](C)[C@@H]2OC(C)=O)O[C@@H]1C` [CHROMOMYCIN A3], the “diameter of the inhibition zone (DIZ)” value in test [1], in [3], in test [13], in test [7] and in test [9] was “inactive” throughout. Also, the zone of inhibition at 0.04 µg/disc in test [4] (ATCC 4900315, 120 h, read-out: DIZ) was 13 mm. Further, the zone of inhibition at 4 µg/disc in [5] came to 11 mm; in [8] it was 26 mm. For the same molecule, the zone of inhibition at 0.4 µg/disc in test [10] worked out at 19 mm.

As to `CCC[C@@H]1C[C@@H](C(=O)N[C@@H]([C@H]2O[C@H](SC)[C@H](O)[C@@H](O)[C@H]2O)[C@@H](C)O)N(C)C1` [LINCOMYCIN], the zone of inhibition at 0.4 µg/disc stood at 34 mm in test [1] and 18 mm in test [7]. Besides, the zone of inhibition at 4 µg/disc in test [13] stood at 40 mm; in test [5], 40 mm; in test [11], 12 mm. Moreover, the “diameter of the inhibition zone (DIZ)” value in [4], in [8] and in test [10] was “inactive” each time. Also, in test [9], the zone of inhibition at 0.04 µg/disc was determined as 20 mm.

`C[C@@H]1O[C@@H]1P(=O)(O)O` [FOSFOMYCIN]: the zone of inhibition at 0.4 µg/disc in test [1] worked out at 16 mm. Moreover, the “diameter of the inhibition zone (DIZ)” value in test [3], in test [13], in test [4], in test [7], in test [8] and in [10] was “inactive” in each case. The zone of inhibition at 4 µg/disc in test [5] is 17 mm. Also, the zone of inhibition at 0.04 µg/disc in test [9] is 16 mm.

In the case of `N=C(N)NCC(O)CC(O)(C(=O)O)[C@@H]1O[C@@H](N2C=C(CO)C(N)=NC2O)C=C[C@@H]1NC(=O)[C@@H](N)CO` (stereo partly specified) [MILDIOMYCIN], the zone of inhibition at 0.4 µg/disc in test [1] was 12 mm; in [10], 11 mm. The “diameter of the inhibition zone (DIZ)” value in [3], in [13], in [4], in [5], in [7] and in [9] was “inactive” throughout. Besides, the figures for the zone of inhibition at 4 µg/disc in test [6] and in test [8] were 22 mm and 28 mm, respectively.

As to `COc1ccc(C[C@H](N)C(=O)N[C@H]2[C@@H](O)[C@H](n3cnc4c(N(C)C)ncnc43)O[C@@H]2CO)cc1` [PUROMYCIN], the “diameter of the inhibition zone (DIZ)” value in test [1], in [3], in test [13], in test [4], in test [5] and in test [7] was “inactive” in each case. Also, the “diameter of the inhibition zone (DIZ)” value in test [9] and in test [10] was “inactive” throughout. Moreover, the zone of inhibition at 4 µg/disc in test [8] was 20 mm.

Regarding `CC1(C)S[C@@H]2[C@H](NC(=O)[C@H](N)c3ccccc3)C(=O)N2[C@H]1C(=O)O` [AMPICILLIN], the “diameter of the inhibition zone (DIZ)” value in test [1], in test [3], in test [4], in [6], in test [7] and in [9] was “inactive” each time. Further, in test [10], the “diameter of the inhibition zone (DIZ)” value is “inactive”. Also, the zone of inhibition at 4 µg/disc in test [5] and in [8] was 16 mm each time.

On to `O=C(N[C@H](CO)[C@H](O)c1ccc([N+](=O)[O-])cc1)C(Cl)Cl` [CHLORAMPHENICOL], for which, in test [1], the zone of inhibition at 0.4 µg/disc was determined as 13 mm. Besides, the zone of inhibition at 4 µg/disc in [2] was found to be 15 mm; in test [13], 44 mm; in test [5], 29 mm; in test [8], 10 mm; in test [11], 16 mm. For the same molecule, the “diameter of the inhibition zone (DIZ)” value in test [3], in test [4], in test [7], in test [9] and in [10] was “inactive” throughout.

As to `CO[C@@H]1[C@@H](O[C@@H]2O[C@H](C)[C@@H](O[C@H]3C[C@@](C)(O)[C@@H](OC(=O)CC(C)C)[C@H](C)O3)[C@H](N(C)C)[C@H]2O)[C@@H](CC=O)C[C@@H](C)[C@@H](O)/C=C/C=C/C[C@@H](C)OC(=O)C[C@H]1OC(C)=O` [JOSAMYCIN], the values for the zone of inhibition at 0.4 µg/disc in test [1], in test [10] and in [12] were 17 mm, 13 mm and 11 mm, respectively. Moreover, the zone of inhibition at 4 µg/disc in [2] was found to be 21 mm; in test [13], 15 mm; in [5] it was 29 mm; in test [6] it was 10 mm; in test [8], 17 mm; in test [11], 14 mm. In addition, the “diameter of the inhibition zone (DIZ)” value in test [3], in test [4] and in [7] was “inactive” throughout. Besides, the zone of inhibition at 0.04 µg/disc in test [9] worked out at 15 mm.
